This note sets out measurements from ChEMBL document CHEMBL1143030, “Synthesis and evaluation of 2-(2,6-dihalophenyl)-3-pyrimidinyl-1,3-thiazolidin-4-one analogues as anti-HIV-1 agents” (Bioorg Med Chem, 2007).

Series [1] deals with Human immunodeficiency virus type 1 reverse transcriptase (Human immunodeficiency virus 1) (UniProt Q72547). The series can be described thus: Inhibition of HIV1 reverse transcriptase at 100 ug/ml.
Series [2] shares this target. The series can be described thus: Inhibition of HIV1 reverse transcriptase at 10 ug/ml.
A short description of series [3]: Cytotoxicity against mock-infected CEM cells assessed as reduction of cell viability. The note with it: human, mock-infected CEM (CCRF-CEM) cells. The format is cell-based.
Series [4] has as its system Human immunodeficiency virus 1. The series can be described thus: Antiviral activity against HIV1 3B-induced cytopathic effect in MT4 cells assessed as inhibition of virus-induced syncytium formation. The format is functional, organism-based. The following applies: Human immunodeficiency virus 1, 3B. For orientation: Cytopathic effects are the visible damage that an infection or toxin causes in cultured cells.

The test system of series [5] is Human immunodeficiency virus 1. Kind of series: Antiviral activity against HIV1 3B-induced cytopathic effect in CEM cells assessed as inhibition of virus-induced syncytium formation. It counts as functional, organism-based. The note with it: Human immunodeficiency virus 1, 3B, CCRF-CEM.
Series [6] is described as follows: Selectivity index, ratio of CC50 for mock-infected CEM cells to EC50 for HIV1 3B. The format is functional, CCRF-CEM.
The nature of series [7]: Cytotoxicity against mock-infected MT4 cells assessed as reduction of cell viability. The format is cell-based. The following applies: human.
Series [8] has as its system Human immunodeficiency virus 2. The series can be described thus: Inhibition of HIV2 ROD replication in MT4 cells. The format is functional, organism-based.
The nature of series [9]: Selectivity index, ratio of CC50 for mock-infected MT4 cells to EC50 for HIV1 3B. The format is functional.

Molecules are shown by their SMILES. The source made the active and inactive calls. The calls are words filed in the database; no cut-off is given here. Where only a bound is given, the exact number is not on record here.

As to `Cc1nc(N2C(=O)CSC2c2c(F)cccc2Cl)nc(C)c1C` (configuration not stated), the figures for the inhibition in [1] and in series [2] were 100% and 99.3%, respectively.
For `Cc1cc(C(F)(F)F)nc(N2C(=O)CSC2c2c(F)cccc2F)n1` (configuration not stated), the CC50 (in general, the concentration that lowers cell viability or growth by half) in series [3] was found to be 140 µM; in [7], 125 µM. Further, the EC50 – broadly, the concentration that produces a half-maximal response – in series [4] (read-out: EC50) is 5 µM; in series [4] (read-out: Log EC50 (converted)) it was 5.01 µM; in series [5] it was 4.4 µM. Moreover, the inhibition – broadly, how much of the control response was suppressed – in series [1] was 38.9%; in [2] it was 32.3%. Further, the figures for the “Ratio CC50/EC50” value in series [6] and in series [9] were 32 and 25, respectively. Moreover, the result in series [8] was inactive.
As for `Cc1cc(N2C(=O)CSC2c2c(F)cccc2Cl)nc(C)n1` (configuration not stated), the half-maximal cytotoxic concentration (CC50) in series [3] and in series [7] was 47.6 µM in each case. The EC50 in [4] (read-out: EC50) was 4.3 µM; in series [4] (read-out: Log EC50 (converted)) it was 3.98 µM; in [5] it was 4.1 µM. Also, the inhibition in series [1] amounted to 48.6%; in [2], 9.3%. Besides, the “Ratio CC50/EC50” value in series [6] amounted to 12; in [9], 11. Also, in [8], the result was inactive.
Regarding `Cc1cc(N2C(=O)CSC2c2c(F)cccc2F)nc(C)n1` (configuration not stated), the CC50 in series [3] and in series [7] was 272 µM throughout. In addition, the EC50 in series [4] (read-out: EC50) was 25.5 µM; in series [4] (read-out: Log EC50 (converted)) it was 25.1 µM; in series [5], 20.3 µM. Also, the inhibition in [1] came to 58.1%; in series [2], 27.2%. Besides, the results for the “Ratio CC50/EC50” value in series [6] and in series [9] were 13 and 11, respectively. Besides, the outcome in [8] was inactive.
`Cc1nc(N2C(=O)CSC2c2c(Cl)cccc2Cl)nc(C)c1C` (configuration not stated): the values for the inhibition in series [1] and in series [2] were 100% and 94.8%, respectively.
For the compound `O=C1CSC(c2c(F)cccc2Cl)N1c1nc(-c2ccccc2)cc(C(F)(F)F)n1` (configuration not stated), the EC50 in [4] (read-out: EC50) was greater than 10.8 µM. Also, the inhibition in [1] came out at 20.6%; in series [2], 43.9%. In [7], the cytotoxic concentration (CC50) came to 93.9 µM. Further, the result in [8] was inactive. The “Ratio CC50/EC50” value in [9] was 9.
As for `O=C1CSC(c2c(F)cccc2Cl)N1c1nc(-c2ccccc2)cc(-c2ccccc2)n1` (configuration not stated), in [4] (read-out: EC50), the half-maximal effective concentration (EC50) is greater than 242 µM. Moreover, the inhibition in series [1] was determined as 66.7%; in series [2], 55.6%. In addition, in [7], the half-maximal cytotoxic concentration (CC50) was greater than 201 µM. Also, the result in series [8] was inactive. Also, the “Ratio CC50/EC50” value in series [9] is listed as less than 1.
On to `O=C1CSC(c2c(F)cccc2F)N1c1nc(-c2ccccc2)cc(-c2ccccc2)n1` (configuration not stated), for which, in [4] (read-out: EC50), the concentration for a half-maximal effect (EC50) was greater than 167 µM. Besides, the figures for the inhibition in series [1] and in series [2] were 44% and 30.1%, respectively. The 50% cytotoxic concentration (CC50) in series [7] was determined as 177 µM. Besides, the result in [8] was inactive. Moreover, the “Ratio CC50/EC50” value in series [9] was less than 1.
Turning to `Cc1nc(N2C(=O)CSC2c2c(F)cccc2F)nc(C)c1C` (configuration not stated), the results for the cytotoxic concentration (CC50) in series [3] and in series [7] were greater than 373 µM and 341 µM, respectively. Moreover, the results for the EC50 in [4] (read-out: EC50), in series [4] (read-out: Log EC50 (converted)) and in [5] were 0.4 µM, 0.398 µM and 0.3 µM, respectively. For the same compound, the values for the inhibition in series [1] and in [2] were 100% and 96.3%, respectively. Also, the “Ratio CC50/EC50” value is recorded as greater than 1222 in series [6] and 880 in [9]. Besides, in series [8], the result was inactive.
Take `O=C1CSC(c2c(Cl)cccc2Cl)N1c1nc(-c2ccccc2)cc(C(F)(F)F)n1` (configuration not stated): the EC50 in series [4] (read-out: EC50) was greater than 80.2 µM. Further, the inhibition stood at 39.4% in series [1] and 25.4% in series [2]. Besides, in [7], the cytotoxic concentration (CC50) is 140 µM. Moreover, the result in series [8] was inactive. Also, the “Ratio CC50/EC50” value in [9] is on record as less than 1.
As to `Cc1cc(-c2ccccc2)nc(N2C(=O)CSC2c2c(F)cccc2F)n1` (configuration not stated), the CC50 in series [3] and in [7] was 36.5 µM throughout. The half-maximal effective concentration (EC50) in [4] (read-out: EC50) was 6.4 µM; in [4] (read-out: Log EC50 (converted)), 6.31 µM; in [5], 5.6 µM. Moreover, the inhibition was 54.2% in [1] and 47.4% in series [2]. For the same compound, the “Ratio CC50/EC50” value in [6] and in series [9] was 6 each time. Moreover, the result in [8] was inactive.
`O=C1CSC(c2c(Cl)cccc2Cl)N1c1nc(-c2ccccc2)cc(-c2ccccc2)n1` (configuration not stated): in series [4] (read-out: EC50), the EC50 was greater than 195 µM. For the same compound, the inhibition in series [1] was 51.4%; in series [2] it was 31.6%. Moreover, the CC50 in series [7] was found to be 193 µM. Moreover, the result in series [8] was inactive. In series [9], the “Ratio CC50/EC50” value is less than 1.
For the compound `Fc1cccc(F)c1C1SCc2nc3ccccc3n21` (configuration not stated) [THIAZOLOBENZIMIDAZOLE], the EC50 turned out to be 0.35 µM in [4] (read-out: EC50) and 1.1 µM in [5]. Moreover, the “Ratio CC50/EC50” value in series [6] was determined as 45; in [9], 54.5.
Turning to `Cc1cc(N2C(=O)CSC2c2c(Cl)cccc2Cl)nc(C)n1` (configuration not stated), the CC50 is 42 µM in series [3] and 41.3 µM in series [7]. Moreover, the EC50 was 4.3 µM in series [4] (read-out: EC50), 3.98 µM in [4] (read-out: Log EC50 (converted)) and 3.8 µM in series [5]. The values for the inhibition in series [1] and in series [2] were 51.9% and 6.6%, respectively. Besides, the results for the “Ratio CC50/EC50” value in series [6] and in series [9] were 11 and 10, respectively. Besides, the result in [8] was inactive.
As to `O=C1CSC(c2c(F)cccc2F)N1c1nc(-c2ccccc2)cc(C(F)(F)F)n1` (configuration not stated), the EC50 in [4] (read-out: EC50) is greater than 123 µM. Further, the results for the inhibition in series [1] and in series [2] were 6.6% and 15.6%, respectively. For the same compound, in series [7], the CC50 was 74.3 µM. In addition, the outcome in series [8] was inactive. Also, the “Ratio CC50/EC50” value in [9] is recorded as less than 1.
With `Cc1cc(-c2ccccc2)nc(N2C(=O)CSC2c2c(F)cccc2Cl)n1` (configuration not stated), the CC50 in series [3] was 172 µM; in [7], 146 µM. In addition, the values for the 50% effective concentration (EC50) in [4] (read-out: EC50), in series [4] (read-out: Log EC50 (converted)) and in series [5] were 3.9 µM, 3.98 µM and 3.9 µM, respectively. The inhibition in series [1] worked out at 79.9%; in [2], 32.7%. Further, the “Ratio CC50/EC50” value in [6] came out at 44; in [9], 38. Besides, the result in [8] was inactive.
Take `Cc1cc(C(F)(F)F)nc(N2C(=O)CSC2c2c(Cl)cccc2Cl)n1` (configuration not stated): the cytotoxic concentration (CC50) in [3] was 46.7 µM; in series [7], 46.4 µM. Further, the concentration giving a half-maximal response (EC50) is 1 µM in [4] (read-out: EC50), 1 µM in series [4] (read-out: Log EC50 (converted)) and 0.8 µM in series [5]. The inhibition was found to be 43.7% in [1] and 32.9% in series [2]. Also, the “Ratio CC50/EC50” value in series [6] is recorded as 62; in series [9], 46. For the same compound, the outcome in series [8] was inactive.
With `Clc1cccc(Cl)c1C1SCc2nc3ccccc3n21` (configuration not stated), in [4] (read-out: EC50), the EC50 was 0.6 µM. For the same compound, the 50% cytotoxic concentration (CC50) in series [7] came out at 9.4 µM. In series [9], the “Ratio CC50/EC50” value is given as 16.
For the compound `Cc1cc(C(F)(F)F)nc(N2C(=O)CSC2c2c(F)cccc2Cl)n1` (configuration not stated), the CC50 came to 19.3 µM in [3] and 16.9 µM in [7]. Also, the concentration for a half-maximal effect (EC50) was 1.3 µM in series [4] (read-out: EC50), 1.26 µM in [4] (read-out: Log EC50 (converted)) and 1.1 µM in [5]. In addition, the inhibition came out at 93.7% in [1] and 46.3% in [2]. The figures for the “Ratio CC50/EC50” value in series [6] and in series [9] were 18 and 13, respectively. In addition, the outcome in series [8] was inactive.
In the case of `Cc1cc(-c2ccccc2)nc(N2C(=O)CSC2c2c(Cl)cccc2Cl)n1` (configuration not stated), the CC50 in series [3] and in series [7] was 35.3 µM each time. The EC50 is 6.1 µM in series [4] (read-out: EC50), 6.31 µM in series [4] (read-out: Log EC50 (converted)) and 5.8 µM in series [5]. Also, the inhibition in series [1] turned out to be 51.5%; in series [2], 18%. In addition, the “Ratio CC50/EC50” value in series [6] and in [9] was 6 each time. Besides, the outcome in series [8] was inactive.
